Values quoted from earlier work as cited in patent EP0719130B1, “COMPLEX CALCIUM AND FLUORIDE CONTAINING MOUTH RINSES, DENTIFRICES, AND CHEWABLE TABLETS” (AMERICAN DENTAL ASSOCIATION HEALTH FOUNDATION, priority 1993, dated 1995).

Conditions: buffer acid or salt

Row | Molecule | pK
1 | O=S(=O)(O)CCN1CCN(CCO)CC1 [HEPES] | 7.4
2 | OCC(O)CO [glycerol] | 14.15
3 | tyrosine salts | 8.4
